Measured values reported in article PMC6009935 (Journal of Enzyme Inhibition and Medicinal Chemistry, 2017).

Assays:
[1] = target: T1, MOR (Rattus norvegicus, UniProt P33535); assay: Radioligand competition binding with [3H]DAMGO; conditions: for Ki: Cheng-Prusoff; for IC50: read-out: logIC50 ± S.E.M., [3H]DAMGO (MOR) (converted)
T1 construct: a: performed in rat whole brain membrane homogenates; from tissue; host or cells: Wistar rat whole brain membrane homogenate
Experimental: Tris-HCl, EGTA, NaCl, MgCl2 x 6H2O, GDP, the GTP analogue GTPγS, were purchased from Sigma-Aldrich (Budapest, Hungary). Fatty acid free bovine serum albumin (BSA) was purchased from Serva (Heidelberg, Germany). Naloxone was kindly provided by the company Endo Laboratories DuPont de Nemours (Wilmington, DE, USA). HS665 was provided by Schmidhammer’s group (University of Innsbruck, Austria). […]
purchased from Tocris Bioscience (Bristol, UK).
DMSO. All compounds were stored in 1 mM stock solution at -20 °C. The radiolabelled GTP analogue, [35S]GTPγS (specific activity: 1000 Ci/mmol) were purchased from Hartmann Analytic (Braunschweig, Germany). [3H]DAMGO (specific activity: 38.8 Ci/mmol),12 [3H]IleDelt II (specific activity: 19,6 Ci/mmol), [3H]WIN55,212-2 (specific activity: 13,1 Ci/mmol) and [3H]HS665 (specific activity: 36.62 Ci/mmol),3 were radiolabeled by the Laboratory of Chemical Biology group in BRC (Szeged, Hungary).
For membrane homogenate preparations male and female Wistar rats (250-300 g body weight) and male guinea pigs (~700 g body weight, LAL/HA/BR strain) were used. Rats were housed in the local animal house of BRC (Szeged, Hungary), while guinea pigs were housed in LAB-ÁLL Bt.
(Budapest, Hungary). All the animals were kept in a temperature controlled room (21-24 °C) under a 12:12 light and dark cycle and were provided with water and food ad libitum. All housing and experiments were conducted in accordance with the European Communities Council Directives (2010/63/EU) and the Hungarian Act for the Protection of Animals in Research (XXVIII.tv. 32.§).
The total number of animals as well as their suffering was minimized.
Rat and guinea pig brain membrane homogenate preparation for binding assays Rats and guinea pigs were decapitated and their brains were quickly removed. The brains were prepared for membrane preparation as previously described,4 and partly used for binding experiments and partly were further prepared for the [35S]GTPγS binding experiments. Briefly the brains were homogenized, centrifuged in ice-cold 50 mM Tris-HCl (pH 7.4) buffer and incubated at 37 °C for 30 min in a shaking water-bath. After incubation the centrifugation was repeated as described above and the final pellet was suspended in 50 mM Tris-HCl pH 7.4 buffer containing 0.32 M sucrose, and stored at -80 °C. For the [35S]GTPγS binding experiments the final pellet of rat […]
brain membrane homogenate was suspended in ice-cold TEM (Tris-HCl, EGTA, MgCl2) and stored at -80 °C for further use.
Radioligand competition binding experiments
Aliquots of frozen rat brain membrane homogenates were centrifuged (18 000 rpm, 20 min, 4 °C) to remove sucrose and the pellets were suspended in 50 mM Tris-HCl buffer (pH 7.4). Membranes containing 0.4-0.8 mg/mL of protein were incubated in a final volume of 1 mL in the presence of unlabeled 5, 10 and 9 in increasing concentrations (10-11-10-5 M) in the presence of the appropriate radioligand in ~1 nM concentrations at certain temperature and amount of time depending on the radioligand ([3H]DAMGO and [3H]IleDelt II: 35 °C for 45 min; [3H]HS665: 30 °C, 45 min; [3H]WIN55,212-2: 30 °C for 60 min). Experiments performed with [3H]HS665 where incubated […]
more kappa receptors than the rat brain), while the rest of the radioligands were incubated together with rat whole brain membrane homogenates. Additionally, in experiments performed with […]
increasing concentrations (10-11-10-5 M) together with 50 mM Tris/HCl, 2.5 mM EGTA, 5 mM MgCl2 and 0.5 mg/mL fatty acid free BSA (pH 7.4). The level of non-specific binding was […]
binding was determined in the absence of unlabeled compounds. The reaction was terminated by rapid filtration under vacuum (Brandel M24R Cell Harvester), and washed three times with 5 mL ice-cold 50 mM Tris-HCl or 50 mM Tris/HCl, 2.5 mM EGTA, 5 mM MgCl2, 0.5 % BSA (pH 7.4) in case of [3H]WIN55,212-2. The filtration was accomplished through Whatman GF/C ([3H]DAMGO, [3H]IleDelt II and [3H]HS665) or GF/B ([3H]WIN55,212-2) glass fibers. In case of […]

[2] = tested on: hypothalamic synaptosomes; assay: In vitro hypothalamic perfusion test (neurotransmitter release); format: cell-based, rat; conditions: 10 µM
Experimental: was evaluated with the analysis of variance followed by Dunnett’s post-hoc comparisons using GraphPad Prism 6.03 software. Statistical significance was assumed at least for P<0.05.
In vitro hypothalamic perfusion test
Hypothalamic synaptosomes were obtained from 18 male adult Sprague-Dawley rats (290-340 g), as previously described.9
Then, the synaptosome suspension was incubated at 37°C, under O2/CO2 95%/5%, pH 7.35-7.45, in Krebs-Ringer buffer (mM: NaCl 125, KCl 3, MgSO4 1.2, CaCl2 1.2, Tris-HCl 10, glucose 10, ascorbic acid 1). After the incubation period, identical aliquots of synaptosome suspension (1.24 mg protein determined by bicinchoninic acid protein assay) were layered onto 0.8 μm Millipore filters, placed into 37°C water-jacketed superfusion chambers [18 different chambers for each experiment and perfused with Krebs-Ringer buffer (0.6 mL/min)], and perfusate was collected (2 min fractions) to detect released neurotransmitters by HPLC coupled to electrochemical detection. The analytical conditions for amine identification and quantification in the perfusate fractions were selected on the basis of previous experiments performed on hypothalamus homogenate.10
The experimental protocol includes three phases: 10 min perfusion with Krebs-Ringer buffer in […]
buffer (stimulus); 8 min perfusion with Krebs-Ringer buffer for return to basal condition (post-stimulus). Perfusate was collected starting from the 8th minute of pre-stimulus. Perfusate aliquots were stored at -80°C, then lyophilized and finally suspended in 1 mL HPLC grade water for neurotransmitter quantification. Neurotransmitter release was expressed as mean percentage release recovered in the stimulus and post-stimulus, compared with initial basal conditions (pre-stimulus

[3] = rat whole brain membrane homogenates, logarithm of IC50, negative sign printed
[4] = rat whole brain membrane homogenates

T1 sequence (P33535 whole entry): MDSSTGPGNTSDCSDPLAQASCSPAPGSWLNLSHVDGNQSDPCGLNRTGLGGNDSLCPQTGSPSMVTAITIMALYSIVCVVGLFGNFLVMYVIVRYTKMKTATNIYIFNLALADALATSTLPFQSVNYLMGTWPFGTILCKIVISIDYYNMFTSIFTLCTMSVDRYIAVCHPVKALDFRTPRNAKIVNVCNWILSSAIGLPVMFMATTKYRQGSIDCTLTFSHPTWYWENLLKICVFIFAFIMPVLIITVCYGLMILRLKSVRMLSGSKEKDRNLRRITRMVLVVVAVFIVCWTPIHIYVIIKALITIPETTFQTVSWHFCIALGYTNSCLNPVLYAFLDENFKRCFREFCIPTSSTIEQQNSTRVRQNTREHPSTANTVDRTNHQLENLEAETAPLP

SMILES	MOR binding affinity in words [1]	logIC50 ± S.E.M., [3H]DAMGO (MOR) [1, 3]	effect on dopamine (DA) release [2]	Ki [1, 4] [nM]	IC50 [1, 3] [nM]	Selectivity ratio DOR/MOR ([1]; ratio of Ki values)	Selectivity ratio KOR/MOR ([1]; ratio of Ki values)	effect on norepinephrine (NE) release [2]	effect on serotonin (5-HT) release [2]
Cc1c(C(=O)NC2CCNCC2)nn(-c2ccc(Cl)cc2Cl)c1-n1cccc1 [Compound 5]	did not bind	ambiguous	decreased	–	–	–	–	–	–
Cc1c(C(=O)NC2CCN(C(=O)[C@H](Cc3ccccc3)NC(=O)CNC(=O)[C@@H](C)NC(=O)[C@@H](N)Cc3ccc(O)cc3)CC2)nn(-c2ccc(Cl)cc2Cl)c1-n1cccc1 [Compound 9]	loss in affinity	–	reduced inhibitory effect	34.4	204	12.88	4.93	significant stimulatory effect	no significant effects
C[C@@H](NC(=O)[C@@H](N)Cc1ccc(O)cc1)C(=O)NCC(=O)N[C@@H](Cc1ccccc1)C(N)=O [Compound 10, Tyr-D-Ala-Gly-Phe-NH2, reference compound]	high affinity	–	inhibitory effect	1	6.17	–	–	significant stimulatory effect	inhibitory effect
